From paper PMC10577698, “Development of Novel ^11C-Labeled Selective Orexin-2 Receptor Radioligands for Positron Emission Tomography Imaging” (ACS Medicinal Chemistry Letters, 2023)
Like-named read-outs stand apart in the source and are kept apart here.

Legend:
[1] = molecular target: hERG (Homo sapiens, UniProt Q12809); test: biochemical
Description: (§1) Human OX2 receptor binding (agonist radioligand) assays were finished by Gifford
(§2) Bioscience Limited. Competition binding assays were carried out in 96-well polypropylene
(§3) plates in a final volume of 250 µL per well. To each well were added 150 µL Human OX2
(§4) Receptor Membranes (MultiSpan Inc, MC1034), 50 µL of non-specific or test compound
(§5) or buffer (50 mM Tris, 5 mM MgCl2, 0.1 mM EDTA, pH 7.4), and 50 µL radioligand
(§6) ([3H]EMPA) solution in the buffer. The plate was incubated at 30 °C for 60 minutes with
(§7) gentle agitation. The incubation was stopped by vacuum filtration onto presoaked (Tris
(§8) buffer with PEI) GF/C filters using a 96-well FilterMate™ harvester, followed by 5 washes
(§9) with ice-cold wash buffer (50 mM Tris, 5 mM MgCl2, 0.1 mM EDTA, pH 7.4). Filters were
(§10) then dried under a warm air stream and sealed in polyethylene, a scintillation cocktail was
(§11) specific binding. Data were fitted using the non-linear curve fitting routines in Prism®
(§12) (Graphpad Software Inc) to determine IC50. Ki was subsequently calculated using the
(§13) CYP enzymes and hERG inhibition assays were finished by Reaction Biology Corporation.

[2] = molecular target: CYP3A4 (Homo sapiens, UniProt P08684); test: biochemical
Description: as §13

[3] = molecular target: T1, human orexin 2 receptor (Homo sapiens, UniProt O43614); test: Human OX2 receptor radioligand ([3H]EMPA) competition binding assay; details: for Selectivity (OX2R/OX1R): Figure 4b
T1 sequence (O43614 1-444): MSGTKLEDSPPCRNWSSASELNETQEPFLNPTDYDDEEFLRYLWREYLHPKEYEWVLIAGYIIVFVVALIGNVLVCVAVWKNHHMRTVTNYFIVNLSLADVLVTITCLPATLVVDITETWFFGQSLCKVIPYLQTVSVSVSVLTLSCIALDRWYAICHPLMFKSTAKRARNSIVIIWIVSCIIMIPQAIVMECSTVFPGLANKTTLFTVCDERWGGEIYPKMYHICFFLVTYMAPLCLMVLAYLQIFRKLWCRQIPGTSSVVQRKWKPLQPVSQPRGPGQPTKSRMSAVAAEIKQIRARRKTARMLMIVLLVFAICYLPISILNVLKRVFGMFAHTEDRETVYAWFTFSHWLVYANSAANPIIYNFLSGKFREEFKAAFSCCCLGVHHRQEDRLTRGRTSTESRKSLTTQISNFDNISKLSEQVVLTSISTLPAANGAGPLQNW
Description: as §1, §2, §3, §4, §5, §6, §7, §8, §9, §10, §11, §12, §13

[4] = molecular target: peripheral benzodiazepine receptor (Rattus norvegicus, UniProt P16257); test: Off-target binding (NIMH PDSP), peripheral benzodiazepine receptor
[5] = molecular target: T2, CYP19A (Homo sapiens, UniProt P11511)
T2 sequence (P11511 1-503): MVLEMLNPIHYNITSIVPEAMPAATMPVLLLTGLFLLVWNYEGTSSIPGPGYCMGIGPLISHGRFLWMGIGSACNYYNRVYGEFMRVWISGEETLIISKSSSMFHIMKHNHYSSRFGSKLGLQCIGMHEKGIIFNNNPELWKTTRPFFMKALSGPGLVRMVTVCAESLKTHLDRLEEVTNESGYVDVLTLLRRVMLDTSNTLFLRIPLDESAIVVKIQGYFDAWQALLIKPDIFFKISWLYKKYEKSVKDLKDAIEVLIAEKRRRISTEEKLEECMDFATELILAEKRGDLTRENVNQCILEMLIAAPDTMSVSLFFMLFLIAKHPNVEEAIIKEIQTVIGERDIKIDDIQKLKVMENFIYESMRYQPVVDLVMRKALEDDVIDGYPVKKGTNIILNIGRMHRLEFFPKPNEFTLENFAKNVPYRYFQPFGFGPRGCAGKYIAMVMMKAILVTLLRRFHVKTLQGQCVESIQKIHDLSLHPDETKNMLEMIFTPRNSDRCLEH

[6] = molecular target: CYP2C19 (Homo sapiens, UniProt P33261); test: biochemical
Sequence of CYP2C19 (P33261 whole entry, species assumed): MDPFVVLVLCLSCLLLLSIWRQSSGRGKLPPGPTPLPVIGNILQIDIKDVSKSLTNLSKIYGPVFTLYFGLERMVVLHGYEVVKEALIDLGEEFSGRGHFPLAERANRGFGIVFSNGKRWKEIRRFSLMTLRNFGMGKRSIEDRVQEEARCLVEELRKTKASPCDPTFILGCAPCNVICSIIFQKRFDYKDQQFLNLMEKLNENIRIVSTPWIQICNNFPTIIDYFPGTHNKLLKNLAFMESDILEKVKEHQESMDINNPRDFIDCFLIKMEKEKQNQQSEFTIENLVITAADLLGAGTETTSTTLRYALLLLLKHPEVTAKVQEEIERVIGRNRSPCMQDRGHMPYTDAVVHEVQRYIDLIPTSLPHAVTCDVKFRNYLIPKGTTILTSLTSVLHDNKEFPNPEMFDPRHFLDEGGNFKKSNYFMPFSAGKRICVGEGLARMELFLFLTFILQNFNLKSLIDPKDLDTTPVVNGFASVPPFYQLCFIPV
Description: as §13

[7] = molecular target: CYP2C9 (Homo sapiens, UniProt P11712); test: biochemical
Sequence of CYP2C9 (P11712 whole entry, species assumed): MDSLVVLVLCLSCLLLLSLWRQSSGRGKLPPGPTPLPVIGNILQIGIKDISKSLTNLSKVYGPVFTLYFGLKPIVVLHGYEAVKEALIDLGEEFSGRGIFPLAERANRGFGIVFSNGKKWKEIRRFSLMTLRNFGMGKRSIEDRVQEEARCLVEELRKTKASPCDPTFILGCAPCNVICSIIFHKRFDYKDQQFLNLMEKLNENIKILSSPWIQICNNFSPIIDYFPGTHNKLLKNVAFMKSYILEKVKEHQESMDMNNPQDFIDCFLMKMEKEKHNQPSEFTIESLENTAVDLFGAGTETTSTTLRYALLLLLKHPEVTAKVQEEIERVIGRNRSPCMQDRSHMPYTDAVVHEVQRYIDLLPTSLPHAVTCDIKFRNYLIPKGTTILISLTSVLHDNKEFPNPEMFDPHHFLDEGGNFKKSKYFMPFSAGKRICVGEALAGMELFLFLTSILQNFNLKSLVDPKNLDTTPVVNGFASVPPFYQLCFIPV
Description: as §1, §2, §3, §4, §5, §6, §7, §8, §9, §10, §11, §12, §13

[8] = molecular target: T3, CYP1A2 (Homo sapiens, UniProt P05177); test: CYP450 inhibition assay
T3 sequence (P05177 1-516): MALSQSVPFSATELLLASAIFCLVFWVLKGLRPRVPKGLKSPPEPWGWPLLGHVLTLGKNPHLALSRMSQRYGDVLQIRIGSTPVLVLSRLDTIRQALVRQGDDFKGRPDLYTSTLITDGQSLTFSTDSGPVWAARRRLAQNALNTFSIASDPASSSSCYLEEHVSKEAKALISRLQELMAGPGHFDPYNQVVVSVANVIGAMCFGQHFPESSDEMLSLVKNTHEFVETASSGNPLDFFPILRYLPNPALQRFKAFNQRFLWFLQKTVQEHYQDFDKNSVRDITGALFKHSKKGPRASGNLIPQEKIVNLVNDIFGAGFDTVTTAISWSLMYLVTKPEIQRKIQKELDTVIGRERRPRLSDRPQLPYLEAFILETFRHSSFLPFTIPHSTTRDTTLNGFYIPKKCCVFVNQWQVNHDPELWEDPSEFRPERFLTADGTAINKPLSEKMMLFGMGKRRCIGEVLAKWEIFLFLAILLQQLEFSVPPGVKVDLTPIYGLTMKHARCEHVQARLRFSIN
Description: as §1, §2, §3, §4, §5, §6, §7, §8, §9, §10, §11, §12, §13

[9] = molecular target: T4, orexin 2 receptors (Rattus norvegicus, UniProt P56719); test: In vitro autoradiography in rat brain sections; details: for effect of blocker on radioactivity in OX2-rich brain regions: blocker 10 μM, autoradiography with [11C]1 or [11C]2, rat brain sections; for in vitro binding specificity: rat brain sections, autoradiography
T4 sequence (P56719 1-460): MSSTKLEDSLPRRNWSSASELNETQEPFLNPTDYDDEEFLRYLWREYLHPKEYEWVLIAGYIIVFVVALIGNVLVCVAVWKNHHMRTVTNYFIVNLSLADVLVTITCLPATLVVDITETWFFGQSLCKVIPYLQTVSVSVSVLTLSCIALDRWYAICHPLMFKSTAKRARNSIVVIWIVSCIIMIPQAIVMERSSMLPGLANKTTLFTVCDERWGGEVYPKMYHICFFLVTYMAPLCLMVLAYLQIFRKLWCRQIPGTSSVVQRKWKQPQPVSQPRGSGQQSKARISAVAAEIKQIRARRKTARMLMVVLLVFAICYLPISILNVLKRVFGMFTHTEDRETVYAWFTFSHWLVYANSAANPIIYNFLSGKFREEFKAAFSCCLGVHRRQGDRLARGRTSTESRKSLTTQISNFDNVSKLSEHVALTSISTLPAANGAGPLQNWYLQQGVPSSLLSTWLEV
Description: 2.5 In vitro autoradiography
The method for in vitro autoradiography was slightly modified from previous reports. 5 Rat
brain was cut into 20 μm sections, stored at −80 °C, and ready for the experiment. The rat
brain sections were preincubated with Tris−HCl buffer (50 mM) containing MgCl2 (2 mM)
and CaCl2 (1.2 mM) for 20 min at ambient temperature, followed by incubation with [11C]1
added to incubation solution. Then the brain sections were washed with ice-cold buffer for
three times and dipped in cold distilled water for 10 s. The brain sections were dried with
cold air. The exposure time for the phosphor plate in the autoradiography study is 1 h .

[10] = molecular target: CYP2D6 (Homo sapiens, UniProt P10635); test: biochemical
Sequence of CYP2D6 (P10635 whole entry, species assumed): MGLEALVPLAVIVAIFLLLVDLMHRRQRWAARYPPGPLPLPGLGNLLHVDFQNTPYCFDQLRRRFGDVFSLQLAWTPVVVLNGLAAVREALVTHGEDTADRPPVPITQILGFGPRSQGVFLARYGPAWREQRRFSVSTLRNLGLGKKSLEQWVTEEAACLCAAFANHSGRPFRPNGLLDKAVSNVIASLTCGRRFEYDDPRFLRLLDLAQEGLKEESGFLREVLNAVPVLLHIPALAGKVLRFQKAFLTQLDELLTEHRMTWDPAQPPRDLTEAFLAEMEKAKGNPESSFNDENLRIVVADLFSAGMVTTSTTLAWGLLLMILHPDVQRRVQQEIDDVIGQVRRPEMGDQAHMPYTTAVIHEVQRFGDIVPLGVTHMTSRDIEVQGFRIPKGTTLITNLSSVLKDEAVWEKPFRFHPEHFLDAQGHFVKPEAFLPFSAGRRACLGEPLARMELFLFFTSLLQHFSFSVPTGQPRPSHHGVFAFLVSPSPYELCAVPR
Description: as §13

[11] = Stability of radiotracer in saline; assay type: physicochemical; details: within 90 min
Description: Based on the favorable in vitro pharmacological and ADME properties, compounds 1 and 2 were labeled with carbon-11 and evaluated as OX2 PET radioligands. […] The reaction mixtures were then diluted with the HPLC buffer and purified by a semipreparative reverse HPLC to give [^11C]1 and [^11C]2 in 71% and 20% radiochemical yields (decay-corrected) with the molar activities of 210 GBq/μmol and 185 GBq/μmol, respectively.

[12] = system: rat brain; test: Dynamic PET imaging in Sprague-Dawley rats
Description: The imaging studies were conducted according to the previous literature6,7 with minor
modifications. PET scans were carried out by an Inveon PET scanner. Sprague-Dawley
rats were kept under anesthesia with 1-2% (v/v) isoflurane during the scan. The radiotracer
[11C]1 (37–42 MBq) or [11C]2 (32–37 MBq) was injected via a preinstalled catheter into
the tail vein. A dynamic scan in 3D mode was acquired for 60 min. For blocking studies, a
solution of elacridar (3 mg/kg) in 300 µL saline containing 10% DMSO, 40% polyethylene
glycol, and 5% Tween® 80 was injected at 20 min via the pre-embedded tail vein catheter
before PET tracer injection. An MR template of SD rats was applied for PET/MR merged
images. The radioactivity was decay-corrected and expressed as the standardized uptake
value (SUV). SUV = (radioactivity per mL tissue / injected radioactivity) x body weight.

[13] = system: OX2R; parameters: method as in PMID 19751316; details: cited from earlier work
[14] = SD rats pretreated with Elacridar 3 mg/kg 20 min before tracer

Sequence of CYP3A4 (P08684 whole entry, species assumed): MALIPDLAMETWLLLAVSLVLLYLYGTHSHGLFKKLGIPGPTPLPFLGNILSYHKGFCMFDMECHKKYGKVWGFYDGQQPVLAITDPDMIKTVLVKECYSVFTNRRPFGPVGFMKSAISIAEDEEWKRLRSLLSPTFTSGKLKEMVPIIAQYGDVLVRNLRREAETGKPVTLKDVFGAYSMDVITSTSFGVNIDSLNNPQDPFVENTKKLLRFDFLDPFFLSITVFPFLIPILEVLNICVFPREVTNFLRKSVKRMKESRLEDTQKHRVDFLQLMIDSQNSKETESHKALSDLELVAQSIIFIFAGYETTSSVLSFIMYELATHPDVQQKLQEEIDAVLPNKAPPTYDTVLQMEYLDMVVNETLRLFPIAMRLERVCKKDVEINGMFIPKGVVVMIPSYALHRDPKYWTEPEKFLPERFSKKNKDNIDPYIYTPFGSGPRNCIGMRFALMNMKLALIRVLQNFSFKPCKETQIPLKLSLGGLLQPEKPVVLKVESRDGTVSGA
Sequence of hERG (Q12809 whole entry): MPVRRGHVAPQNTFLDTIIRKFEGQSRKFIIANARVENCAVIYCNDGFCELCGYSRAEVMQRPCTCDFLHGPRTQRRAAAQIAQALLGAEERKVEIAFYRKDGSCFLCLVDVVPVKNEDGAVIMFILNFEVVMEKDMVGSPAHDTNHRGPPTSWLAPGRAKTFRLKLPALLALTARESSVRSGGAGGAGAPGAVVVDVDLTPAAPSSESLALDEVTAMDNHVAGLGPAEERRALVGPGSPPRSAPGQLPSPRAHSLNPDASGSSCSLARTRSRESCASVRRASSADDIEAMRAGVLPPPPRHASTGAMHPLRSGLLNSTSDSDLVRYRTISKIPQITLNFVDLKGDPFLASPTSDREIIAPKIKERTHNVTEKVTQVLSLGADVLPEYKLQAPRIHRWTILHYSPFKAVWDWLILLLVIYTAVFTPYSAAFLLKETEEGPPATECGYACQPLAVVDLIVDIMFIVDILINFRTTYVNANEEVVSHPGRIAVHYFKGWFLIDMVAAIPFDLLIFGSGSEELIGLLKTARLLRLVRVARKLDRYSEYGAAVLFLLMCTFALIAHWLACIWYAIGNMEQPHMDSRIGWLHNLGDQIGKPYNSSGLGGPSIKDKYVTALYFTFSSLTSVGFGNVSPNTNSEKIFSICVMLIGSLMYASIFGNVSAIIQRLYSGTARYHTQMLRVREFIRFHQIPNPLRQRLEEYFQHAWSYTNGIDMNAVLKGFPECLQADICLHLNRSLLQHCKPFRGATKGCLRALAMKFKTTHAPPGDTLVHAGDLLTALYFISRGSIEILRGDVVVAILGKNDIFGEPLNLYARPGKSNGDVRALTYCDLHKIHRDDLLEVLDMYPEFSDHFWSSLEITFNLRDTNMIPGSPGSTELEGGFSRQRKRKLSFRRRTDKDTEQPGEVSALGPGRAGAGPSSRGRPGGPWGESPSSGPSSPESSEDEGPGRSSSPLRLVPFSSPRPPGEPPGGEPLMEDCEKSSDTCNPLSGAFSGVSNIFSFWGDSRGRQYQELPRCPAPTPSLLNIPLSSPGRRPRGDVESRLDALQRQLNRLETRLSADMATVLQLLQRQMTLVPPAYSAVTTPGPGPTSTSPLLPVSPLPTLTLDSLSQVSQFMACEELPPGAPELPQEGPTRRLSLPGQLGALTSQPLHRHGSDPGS

Molecule	IC50 [1]	IC50 [2]	Ki [3]	target selectivity OX2/OX1 [3]	Selectivity (OX2R/OX1R) [3]	IC50 [5]	IC50 [6]	IC50 [7]	IC50 [8]	effect of blocker on radioactivity in OX2-rich brain regions [9]	IC50 [10]	stability in saline [11]	in vitro binding specificity [9]	other results
CCN(Cc1ccccc1)C(=O)CN(c1ccccc1OC)S(=O)(=O)c1ncccc1C [Compound 1]	> 100 µM	> 5 µM	0.0036 µM	> 600 folds	601	> 5 µM	> 5 µM	> 5 µM	> 5 µM	remarkably diminished the radioactivity	> 5 µM			IC50 [3]: 0.0071 µM; Ki [4]: 0.253 µM
CCN(Cc1ccccc1)C(=O)CN(c1ccc(OC)nc1)S(=O)(=O)c1ncccc1C [Compound 2]	> 100 µM	> 5 µM	0.0022 µM	> 600 folds	1220	> 5 µM	> 5 µM	> 5 µM	> 5 µM	remarkably diminished the radioactivity	> 5 µM			IC50 ([3]; read-out: IC50/OX2, [3H]EMPA competition, human OX2 receptor membranes): 0.0044 µM
CCN(Cc1ccccc1)C(=O)CN(c1ccccc1O[11CH3])S(=O)(=O)c1ncccc1C [[^11C]1]												stable	good to excellent in vitro binding specificity	
CCN(Cc1ccccc1)C(=O)CN(c1ccc(O[11CH3])nc1)S(=O)(=O)c1ncccc1C [[^11C]2]												stable	good to excellent in vitro binding specificity	highest radioactivity levels in hippocampus and cerebellum [12, 14]: 0.9 SUV; radioactivity level after washout in hippocampus and cerebellum [12, 14]: 0.3 SUV; brain uptake ([12]; baseline PET, SD rats): poor brain uptake; highest radioactivity levels in hippocampus and cerebellum ([12]; baseline, SD rats, 2 min postadministration of tracer): around 0.4 SUV; radioactivity level after washout in hippocampus and cerebellum ([12]; baseline, SD rats, 60 min scan): 0.2 SUV; bound radioactivity levels in hippocampus and cerebellum after blocking ([12]; preadministration of EMPA 1 mg/kg i.v., SD rats): did not remarkably reduce
orexin-B: endogenous neuropeptide ligand, a 28 amino acid peptide														selectivity toward OX2R against OX1R [13]: > 10 folds
